The values below are quoted from earlier work in patent US20090325807A1, “Method of Improving Plant Growth” (Bayer Cropscience AG, priority 2004, published 2009).

In the data set the test system is cucumis melo L. The note with it: in the absence of insects.

`O=[N+]([O-])NC1=NCCN1Cc1ccc(Cl)nc1` [imidacloprid, Imidacloprid]: the growth effect entry is recorded as “no growth effect”.
